Data taken from the NIST ThermoML archive (doi:10.1016/j.jct.2013.09.043).

How the values were obtained:
[1] = 101 kPa, Liquid; for viscosity: Capillary tube (Ostwald / Ubbelohde) method; for mass density: Vibrating tube method
[2] = xn = mol fraction of the nth substance listed; details: 101 kPa, Liquid; for viscosity: Capillary tube (Ostwald / Ubbelohde) method; for mass density: Vibrating tube method

CC(C)O [propan-2-ol]
[1]
Details	mass density [kg/m3]	viscosity [mPa·s]
298.15 K	780.95	2.077
303.15 K	776.79	1.787
308.15 K	772.39	1.558
313.15 K	767.76	1.351

CCC(C)O (stereo not drawn) [butan-2-ol]
[1]
Details	mass density [kg/m3]	viscosity [mPa·s]
298.15 K	803.09	3.034
303.15 K	798.89	2.527
308.15 K	795.04	2.125
313.15 K	790.15	1.798

CCCC(C)O (stereo not drawn) [pentan-2-ol]
[1]
Details	mass density [kg/m3]	viscosity [mPa·s]
298.15 K	805.05	3.423
303.15 K	800.88	2.834
308.15 K	796.89	2.348
313.15 K	792.62	1.979

NC=O [formamide] + CCCCC(C)O
[2], x1 = 1
Details	mass density [kg/m3]	viscosity [mPa·s]
298.15 K	1129	3.305
303.15 K	1125.1	2.975
308.15 K	1120.98	2.64
313.15 K	1116.85	2.42

NC=O [formamide]
[1]
Details	mass density [kg/m3]	viscosity [mPa·s]
298.15 K	1129	3.305
303.15 K	1125.1	2.975
308.15 K	1120.98	2.64
313.15 K	1116.85	2.42

NC=O [formamide] + CCCCCC(C)O
[2], x1 = 1
Details	mass density [kg/m3]	viscosity [mPa·s]
298.15 K	1129	3.305
303.15 K	1125.1	2.975
308.15 K	1120.98	2.64
313.15 K	1116.85	2.42

CCCCCC(C)O (stereo not drawn) [2-heptanol]
[1]
Details	mass density [kg/m3]	viscosity [mPa·s]
298.15 K	813.38	5.296
303.15 K	809.5	4.315
308.15 K	805.72	3.535
313.15 K	801.46	2.96

NC=O [formamide] + CCCC(C)O
[2], x1 = 1
Details	mass density [kg/m3]	viscosity [mPa·s]
298.15 K	1129	3.305
303.15 K	1125.1	2.975
308.15 K	1120.98	2.64
313.15 K	1116.85	2.42

CCC(C)O (stereo not drawn) [butan-2-ol] + NC=O
[2], x2 = 0
Details	mass density [kg/m3]	viscosity [mPa·s]
298.15 K	803.09	3.034
303.15 K	798.89	2.527
308.15 K	795.04	2.125
313.15 K	790.15	1.798

CC(C)O [propan-2-ol] + NC=O
[2], x2 = 0
Details	mass density [kg/m3]	viscosity [mPa·s]
298.15 K	780.95	2.077
303.15 K	776.79	1.787
308.15 K	772.39	1.558
313.15 K	767.76	1.351

CCCCC(C)O (stereo not drawn) [2-hexanol]
[1]
Details	mass density [kg/m3]	viscosity [mPa·s]
298.15 K	810.14	4.101
303.15 K	806.13	3.411
308.15 K	802.06	2.819
313.15 K	797.96	2.219
